# Laboratory results reported in PubChem BioAssay (NCI).
# Where “and” joins values, the source holds several entries; their conditions need not be identical. Equal values may be shown once.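 These data come from cells grown in 96-well plates and exposed to compound for 48 hours at five concentrations. Definition used: TGI = concentration required for complete inhibition of growth.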 Where a SMILES comes first, the peptide text is derived from it. [ ]: non-standard residue; d: D form. The star is where a group is joined. Phe(4-NO2) = N[CH](Cc1ccc([N+](=O)[O-])cc1)C(=O)O; Boc = CC(C)(C)OC(=O)*
# How the values were obtained:
# Test in all cases: NCI tumour cell line growth inhibition, 48 h
# SF-295 CNS = tested on: SF-295 CNS
# MALME-3M melanoma = tested on: MALME-3M melanoma
# MDA-N = tested on: MDA-N
# CAKI-1 renal = tested on: CAKI-1 renal
# MOLT-4 leukemia = tested on: MOLT-4 leukemia
# HCT-15 colon = tested on: HCT-15 colon
# SK-OV-3 ovarian = tested on: SK-OV-3 ovarian
# COLO 205 colon = tested on: COLO 205 colon
# HT29 colon = tested on: HT29 colon
# HS 578T breast = tested on: HS 578T breast
# SNB-19 CNS = tested on: SNB-19 CNS
SMILES,TGI (SF-295 CNS),TGI (MALME-3M melanoma),TGI (MDA-N),TGI (CAKI-1 renal),TGI (MOLT-4 leukemia),TGI (HCT-15 colon) [µM],TGI (SK-OV-3 ovarian),TGI (COLO 205 colon),TGI (HT29 colon),TGI (HS 578T breast),TGI (SNB-19 CNS)
CC1=C(C(=O)Nc2ccccc2)C2(CCCCC2)C(C#N)=C(SCC(=O)Nc2ccc(Br)cc2)N1,28.9 µM,7.48 µM,17.2 µM,17.6 µM,9 µM,20.2,44.5 µM,4.53 µM,8.53 µM,44.9 µM,> 32.7 µM
CC(=O)Nc1c(C)cc2c(nc3n2CCC3O)c1[N+](=O)[O-] (configuration not stated),> 100 µM,> 100 µM,> 100 µM,> 100 µM,> 100 µM,> 100,> 100 µM,> 100 µM,> 100 µM,> 100 µM,> 100 µM
COC(=O)C1OC(O[C@H]2CC[C@]3(C)[C@H]4CC=C5[C@@H]6CC(C)(C)CC[C@]6(C(=O)OC6OCC(O)C(O)C6OC6OC(C)C(OC7OCC(O)C(O)C7O)C(O)C6O)CC[C@@]5(C)[C@]4(C)CC[C@H]3C2(C)C)C(O)C(O)C1O (some centres not stated),34.8 µM and 32.2 µM,29 µM and 32.8 µM,29.3 µM and 33.1 µM,25.9 µM and 34.9 µM,38.9 µM and 45 µM,> 100,35.9 µM and 36.7 µM,25.8 µM and 30.6 µM,30.8 µM and 29.5 µM,39.4 µM and 35.9 µM,31.2 µM and 27.2 µM
CC(C)NC(=O)CN1CCN(c2c(O)c3c(c(O)c2Cl)C(=O)C=CC3=O)CC1,19.7 µM,2.7 µM,3.43 µM,5 µM,,3.19,24.3 µM,2.89 µM,2.58 µM,6.42 µM,26.9 µM
Cc1ccc(NC(=O)c2cc(S(=O)(=O)Nc3nc4ncccc4[nH]3)c(SSc3cc(Cl)c(C(=O)Nc4ccc(C)cc4)cc3S(=O)(=O)Nc3nc4ncccc4[nH]3)cc2Cl)cc1,> 100 µM,> 100 µM,> 100 µM,> 100 µM,> 100 µM,> 100,> 100 µM,> 100 µM,> 100 µM,> 100 µM,> 100 µM
CCOC(=O)c1ccc(N=c2sc3ccccc3nc2Nc2ccc(C(=O)OCC)cc2)cc1,> 100 µM,> 100 µM,> 100 µM,> 100 µM,> 100 µM,> 100,> 100 µM,> 100 µM,> 100 µM,> 100 µM,> 100 µM
CC(=O)OCc1ccc2oc(=O)c(C(=O)Oc3ccccc3)cc2c1,> 100 µM,> 100 µM,> 100 µM,38.5 µM,> 100 µM,50,> 100 µM,> 100 µM,> 100 µM,> 100 µM,> 100 µM
CNC(=O)CCC(NC(=O)OC(C)(C)C)C(=O)NC(Cc1ccc([N+](=O)[O-])cc1)C(=O)NCC(=O)NC (configuration not stated) (Boc-Glu(NHMe)-[Phe(4-NO2)]-Gly-NHMe; configuration not given here),> 100 µM,> 100 µM,> 100 µM,> 100 µM,> 100 µM,> 100,> 100 µM,> 100 µM,> 100 µM,> 100 µM,> 100 µM
CCCCCCCCCCCCCCCCCCN(C)CC(COP(=O)([O-])OCC[N+](C)(C)C)OC (configuration not stated),23.9 µM,43.3 µM,> 100 µM,20.9 µM,11.3 µM,23.5,27.4 µM,8.47 µM,15 µM,> 85.8 µM,18.5 µM
O=C1Oc2cc(O)cc(/C=C/c3ccc(O)cc3)c2[C@@]12c1c(O)cc(O)cc1OC2c1cccc(O)c1 (some centres not stated),88.1 µM,> 100 µM,93.2 µM,> 100 µM,> 100 µM,> 100,93.5 µM,69.7 µM,65 µM,56.6 µM,91.6 µM
O=C(NCCCCCCNC(=O)c1cc(-c2ccccc2)nc2ccccc12)c1cc(-c2ccccc2)nc2ccccc12,> 100 µM,> 100 µM,> 100 µM,> 100 µM,> 100 µM,> 100,> 100 µM,> 100 µM,> 100 µM,> 100 µM,> 100 µM
C=C(Br)CNC(=O)CCC(=O)NCC(=C)Br,> 100 µM,> 100 µM,> 100 µM,> 100 µM,> 100 µM,> 100,> 100 µM,> 100 µM,> 100 µM,> 100 µM,> 100 µM
N[C@H]1CCCC[C@@H]1N1C(=O)c2ccccc2C1(O)c1ccc(Cl)cc1 (some centres not stated),30.9 µM,27.8 µM,25 µM,20.7 µM,19.2 µM,26.7,29.8 µM,12.6 µM,15.6 µM,54.4 µM,27.6 µM
O=[N+]([O-])c1cc(-c2nc(-c3ccccc3)c(-c3ccccc3)[nH]2)c(O)c([N+](=O)[O-])c1,54.2 µM,52 µM,> 100 µM,77.6 µM,61.7 µM,33.6,40.6 µM,45.1 µM,35.8 µM,> 100 µM,> 100 µM
OCCNCNc1nc(NCNCCO)nc(N(CNCCO)CNCCO)n1,> 61.6 µM,33.2 µM,38.4 µM,57.7 µM,67.7 µM,61.6,> 85.9 µM,30.8 µM,45.8 µM,> 78.8 µM,38.1 µM
O=[N+]([O-])c1ccc(N/N=C/c2ccc(OCCCCCCCCCCCO)cc2)c([N+](=O)[O-])c1,9.6 µM,4.61 µM,13 µM,8.94 µM,> 100 µM,> 100,11.6 µM,6.24 µM,> 100 µM,6.5 µM,27.1 µM
COc1ccc(C(=O)/C=C/c2cc(O)c(O)c(F)c2F)c(OC)c1,> 100 µM,31.3 µM,80.3 µM,> 100 µM,,36.6,98.1 µM,53.1 µM,> 100 µM,> 100 µM,> 100 µM
N#Cc1cnc(N)nc1NCC1(CO)CC(CCc2ccccc2)C1 (configuration not stated),> 100 µM,> 100 µM,> 100 µM,> 100 µM,> 100 µM,> 100,> 100 µM,> 100 µM,> 100 µM,> 100 µM,> 100 µM
N#Cc1c(N)nc(Sc2ccccc2N)c(C#N)c1-c1ccc(Cl)cc1,25.9 µM,27.7 µM,40.2 µM,45 µM,> 24.6 µM,54.7,40.6 µM,> 100 µM,> 100 µM,32 µM,> 56.6 µM
CO/N=C(\C)c1cccc(Nc2c3ccccc3nc3occc23)c1,18.4 µM,34.5 µM,15.8 µM,19.2 µM,37.9 µM,50.4,36.4 µM,17.6 µM,16.7 µM,41 µM,45.5 µM
Cc1cc(=O)oc2c(CNC(Cc3ccccc3)C(=O)O)c(O)ccc12 (configuration not stated),> 100 µM,> 100 µM,> 100 µM,> 100 µM,> 100 µM,> 100,> 100 µM,> 100 µM,> 100 µM,> 100 µM,> 100 µM
COCN1C(=O)[C@@H]2CCCN2C(=O)c2cc(N)ccc21,> 100 µM,> 100 µM,> 100 µM,> 100 µM,,> 100,> 100 µM,8.86 µM,> 100 µM,> 100 µM,> 100 µM
CC(=O)OCC1OC(n2c(-c3ccc(C)cc3)cc(-c3ccccc3)c(C#N)c2=S)C(OC(C)=O)C(OC(C)=O)C1OC(C)=O (configuration not stated),> 100 µM,> 100 µM,> 100 µM,> 100 µM,> 100 µM,> 100,> 100 µM,> 100 µM,> 100 µM,> 100 µM,> 100 µM
CCC(=O)Nc1ccc(N2C(=O)C(Cl)C2c2ccc(SC)cc2)cc1 (configuration not stated),> 100 µM,> 100 µM,> 100 µM,> 100 µM,> 100 µM,> 100,> 100 µM,> 100 µM,> 100 µM,> 100 µM,> 100 µM
CC(=O)O[C@H]1[C@H](OC(=O)CC(C)(O)CC(=O)O)C[C@]2(C)C3=C(CCC2C1(C)C)[C@]1(C)CC[C@H]([C@H]2CC[C@H](C(C)(C)O)OC2O)[C@@]1(C)[C@@H](O)C3 (some centres not stated),33.9 µM,57.3 µM,34.3 µM,36.7 µM,40.9 µM,34.9,30.6 µM,,30.2 µM,41.9 µM,33.6 µM
CC(C(O)c1ccccc1)C(O)(C(F)(F)F)C(F)(F)F (configuration not stated),> 100 µM,> 100 µM,> 100 µM,> 100 µM,> 100 µM,> 100,> 100 µM,> 100 µM,> 100 µM,> 100 µM,> 100 µM
COc1ccc2c(c1)CCc1c-2n(CCN2CCCCC2)c2ccc(OC)cc12,> 100 µM,> 100 µM,> 100 µM,> 100 µM,,> 100,> 100 µM,> 100 µM,> 100 µM,> 100 µM,> 100 µM
